Assay results from US20220324909A1, “THERAPEUTIC PEPTIDES” (COHBAR, INC., priority 2019, published 2022).
Non-standard residues stand in square brackets, D forms with d. No end group written: not given here.

How the values were obtained:
H4-IIE cells = assay: Glucose production in cultured H4-IIE cells and insulin dependence; format: cell-based, rat; settings: peptide 10 μM alone, 24 h, relative to untreated cells
Procedure: The effect of the peptides on glucose homeostasis can be assessed using an assay to monitor glucose production by cultured cells such as rat hepatocytes. […] Following 24 h incubation, conditioned medium from each well was transferred to a fresh 96-well plate. Glucose concentrations in the medium were determined using a Glucose Assay kit (Abcam; Cambridge, Mass.) according to the manufacturer's instructions; absorbance measured using a Cytation 3 plate reader at 570 nm (BioTek, Winooski, Vt.). […] Untreated cells were used as reference for maximal glucose production. […] Insulin at 800 μM was used as a modest inhibitor glucose production. […] Data are presented as averages values from 2-4 independent experiments with each data point performed in triplicate.

3T3-L1 mouse adipocytes = assay: Free fatty acid levels in cultured 3T3-L1 mouse adipocytes and insulin dependence (Example 17); format: cell-based; settings: isoproterenol 0.1 nM; for Free Fatty Acid Levels, Percent of Isoproterenol Control Activity No Insulin: peptide 10 μM alone, relative to isoproterenol treated cells; for Free Fatty Acid Levels, Percent of Isoproterenol Control Activity With Insulin: peptide 10 μM with 0.25 nM insulin, relative to 0.25 nM insulin treated cells
Procedure: The effect of the peptides on fatty acid metabolism can be assessed using an assay to monitor free fatty acid levels produced by cultured cells such as mouse adipocytes. […] Following 3 h incubation, conditioned medium from each well was transferred to a fresh 96-well plate. […] Absorbance values were expressed as percent control activity relative to 0.1 nM isoproterenol treated cells (no insulin) for 10 μM peptide alone or 0.25 nM insulin treated cells (with insulin) for 10 μM peptide in presence of 0.25 nM insulin. […] Data are presented as averages values from 2-3 independent experiments with each data point performed in triplicate.

C2C12 cells = assay: Glucose utilization in cultured C2C12 cells and insulin dependence; format: cell-based, mouse; settings: metformin 1 mM, positive control
From the text: The effect of the peptides on glucose homeostasis can be assessed using an assay to monitor glucose utilization by cultured cells such as mouse myotubes. […] C2C12 mouse muscle cell line was purchased from Millipore Sigma (Saint Louis, Mo.). […] Three days after plating the medium was removed and with Differentiation Medium (DMEM/low glucose (1 g/L)+2% Horse Serum+antibiotics) added. […] After 5 days of differentiation, the medium was removed from myotube cultures and replaced with Assay Medium (DMEM/low glucose (1 g/L)+antibiotics). […] Following the 5 h incubation the medium was removed and fresh Assay Medium containing compounds added; 10 μM peptide in absence or presence of 5-20 nM insulin, or 1 mM metformin as a potent stimulator of glucose utilization. […] Following 22 h incubation, conditioned medium from each well was transferred to a fresh 96-well plate. Glucose concentrations in the medium were determined using a Glucose Assay kit (Abcam; Cambridge, Mass.) according to the manufacturer's instructions; absorbance measured using a Cytation 3 plate reader at 570 nm (BioTek, Winooski, Vt.). Absorbance values were expressed as percent control activity relative to untreated treated cells (no insulin) for 10 μM peptide alone or 5-20 nM insulin treated cells (with insulin) for 10 μM peptide in presence of 5-20 nM insulin. Untreated cells were used as reference for basal glucose utilization. The relative standard deviation from plate to plate of untreated control was <10%. Metformin at 1 mM was used as a potent control for increasing glucose utilization. Glucose levels for metformin (1 mM) treatment were <10% of the untreated control value. Data are presented as averages values from 2-3 independent experiments with each data point performed in triplicate.

Compound	Glucose Production, Percent of Control Activity No Insulin (H4-IIE cells) [%]	Free Fatty Acid Levels, Percent of Isoproterenol Control Activity No Insulin (3T3-L1 mouse adipocytes) [%]	Free Fatty Acid Levels, Percent of Isoproterenol Control Activity With Insulin (3T3-L1 mouse adipocytes) [%]	Glucose levels, % of untreated control value (C2C12 cells) [%]
60 (RRMMGMVFQSL) [compound 60]	115.9	110	101	–
53 (RMMGMVFQSL) [compound 53]	91.9	101	81	–
56 (RRMMGMV) [compound 56]	97.1	99	94	–
33 (RRLLGLVFQSLCG[dA]) [compound 33]	113.8	98	80	–
49 (MMGMVFQSLCG[dA]) [compound 49]	120.1	101	103	–
34 (RXMMGMVFQSLCGA; (2)..(2) Xaa is Aib (alpha-aminoisobutyric acid); (14)..(14) D-Ala) [compound 34]	96.9	104	122	–
51 (RMMGMVFQ) [compound 51]	106.1	99	79	–
63 (Ac-RRMMGMVFQSLCG[dA]-NH2) [compound 63]	107.5	112	92	–
58 (RRMMGMVFQ) [compound 58]	114.5	110	114	–
38 (RRMMGMVEQSLCG[dA]) [compound 38]	98.5	101	68	–
CN(C)C(=N)N=C(N)N [metformin, reference compound]	–	–	–	< 10
47 (MMGMVFQS) [compound 47]	108.0	101	93	–
50 (RMMGMVF) [compound 50]	99.8	103	101	–
55 (RRMMGM) [compound 55]	92.6	100	90	–
45 (MMGMVF) [compound 45]	106.9	105	89	–
35 (RXLLGLVFQSLCGA; (2)..(2) Xaa is Aib (alpha-aminoisobutyric acid); (14)..(14) D-Ala) [compound 35]	98.1	101	112	–
CC[C@H](C)[C@H](NC(=O)CNC(=O)[C@@H](NC(=O)[C@@H](NC(=O)[C@H](CCCNC(=N)N)NC(=O)[C@@H](N)CCCNC(=N)N)[C@@H](C)CC)[C@@H](C)CC)C(=O)N[C@H](C(=O)N[C@@H](Cc1ccccc1)C(=O)N[C@@H](CCC(N)=O)C(=O)N[C@@H](CO)C(=O)N[C@@H](CC(C)C)C(=O)N[C@@H](CS)C(=O)NCC(=O)N[C@H](C)C(=O)O)C(C)C [compound 43]	115.8	103	91	–
39 (RRMMGMVFQSLEG[dA]) [compound 39]	103.9	97	67	–
62 (RRMMGMVFQSLCG[dA]-NH2) [compound 62]	105.6	112	109	–
44 (MMGMV) [compound 44]	98.8	103	96	–
46 (MMGMVFQ) [compound 46]	105.0	98	104	–
61 (Ac-RRMMGMVFQSLCG[dA]) [compound 61]	122.7	112	143	–
40 (RRLLGLVEQSLCG[dA]) [compound 40]	109.6	101	76	–
41 (RRLLGLVFQSLEG[dA]) [compound 41]	122.7	97	73	–
48 (MMGMVFQSL) [compound 48]	110.0	92	93	–
52 (RMMGMVFQS) [compound 52]	108.4	102	79	–
57 (RRMMGMVF) [compound 57]	98.3	96	87	–
54 (RMMGMVFQSLCG[dA]) [compound 54]	112.8	102	75	–
59 (RRMMGMVFQS) [compound 59]	114.0	111	114	–
